≈ marks a conversion by molar mass, not a printed value.
What was measured:
E. coli ΔtolC = assay: MIC, broth microdilution, E. coli ΔtolC panel; format: cell-based; conditions: Escherichia coli
From the text: The E. coli JW5503 strain with a deletion of the tolC gene (referred to here as E. coli ΔtolC) was kindly provided by Prof. Hironori Niki, National Institute of Genetics, Japan. The E. coli BW25113 strain with a partial deletion of the lptD gene, codons 330 to 352 (referred to here as E. coli lptD^mut) was kindly provided by Prof. Alexander S. Mankin, University of Illinois, Chicago, IL, USA [44]. The E. coli ΔtolC strain was transformed with the pDualrep2 (Amp^R) plasmid, whereas the E. coli lptD^mut strain was transformed with the pDualrep2 (Kan^R) plasmid (not yet published). Both E. coli strains were grown at 37 °C in Luria–Bertani (LB) medium supplemented with either 100 μg/mL ampicillin or 50 μg/mL kanamycin.
(§1) MIC values for a panel of E. coli ΔtolC strains were determined via the broth microdilution assay as described here with minor modifications. Briefly, the overnight E. coli culture was diluted to an OD600 of 0.01 in the fresh LB medium supplied with 100 μg/mL ampicillin, if required. Then, the cells were additionally incubated for 1–1.5 h at 37 °C with shaking at 200 rpm (Shaker-Incubator ES-20/80, BioSan, Riga, Latvia). Meanwhile, 100 μL of the liquid growth medium was placed in each well of a 96-well sterile plate (200 μL was placed in column 1). Solutions of tested compounds were added in the first column of the plate at 2 times the final concentration of 200 μg/mL. Then, 2-fold serial dilutions were performed. Immediately before use, bacterial inoculum was diluted (1:100) in the growth medium, and 100 μL of it was transferred in each well except for the sterility control column. The plate was incubated overnight (16–20 h) at 37 °C with constant shaking at 200 rpm (Shaker-Incubator ES-20/80, BioSan, Riga Latvia). Cell growth was assessed by scanning the OD600 with a VICTOR X5 Multilabel Plate Reader (PerkinElmer, Waltham, MA, USA).
(§2) Minimum inhibitory concentration (MIC) was defined as the lowest concentration of a chemical compound that inhibits the visible growth of the bacterial strain. At least three replicates of MIC measurements were performed.

E. coli ΔtolC pErmC = assay: MIC, broth microdilution, E. coli ΔtolC panel; format: cell-based; conditions: Escherichia coli
Description: (§3) The E. coli ΔtolC strain was also transformed with the pErmC, pErmCL-ErmC, and pERMZα plasmids. The resulting strains were grown at 37 °C in LB medium supplied with 100 μg/mL ampicillin.
as §1, §2

E. coli ΔtolC pERMZα = assay: MIC, broth microdilution, E. coli ΔtolC panel; format: cell-based; conditions: Escherichia coli
Description: as §3, §1, §2

[1] = tested on: Streptococcus agalactiae 1Cp; assay: MIC, broth microdilution (CLSI); format: cell-based; conditions: S. agalactiae 1Cp, Table 3
Description: (§4) Minimum inhibitory concentration (MIC) values for facultative anaerobic bacteria were determined using the broth microdilution method outlined in the CLSI guidelines. Initially, all compounds were dissolved in dimethyl sulfoxide (DMSO) to achieve a concentration of 10 mg/mL. Subsequently, they were diluted with the Mueller–Hinton nutrient broth (MHB) supplemented with 5% defibrinated horse blood (for Streptococcus spp.) to a concentration of 64 μg/mL. Following 2-fold serial dilutions of the substances, bacterial cultures in the log growth phase were added to 96-well plates at a concentration of 2.5–5 × 10^5 CFU/mL, and the plates were incubated at 37 °C for 16–20 h.
as §2

[2] = tested on: Staphylococcus aureus ATCC 29213; assay: MIC, broth microdilution (CLSI); format: cell-based; conditions: ATCC29213, S. aureus ATCC 29213
Description: as §4, §2

[3] = tested on: Streptococcus pneumoniae ATCC 49619; assay: MIC, broth microdilution (CLSI); format: cell-based; conditions: ATCC49619, S. pneumoniae ATCC 49619, Tables 2 and 3
Description: as §4, §2

[4] = tested on: Propionibacterium acnes 55; assay: MIC, agar dilution, anaerobic bacteria (CLSI M11-A9); format: cell-based; conditions: Cutibacterium acnes; P. acnes 55, anaerobic clinical isolate
[5] = tested on: Clostridium sporogenes ATCC 19404; assay: as above; format: cell-based; conditions: ATCC19404, C. sporogenes ATCC 19404, anaerobic
Description: The antimicrobial activity against anaerobic bacteria was evaluated using the agar dilution method in accordance with the CLSI document M11-A9 [58]. Twofold serial dilutions of compounds, at 10 times the desired concentration, were prepared in water and diluted (1:10) with the Brucella Agar medium containing 5% defibrinated horse blood, 5 mg/L hemin, and 1 mg/L vitamin K. The resulting plates were inoculated with approximately 10^5 CFU per spot using a replicator and incubated anaerobically at 36 °C for 48 h.
as §2

[6] = tested on: cell-free bacterial translation system based on the E. coli S30 lysate; assay: In vitro translation in a cell-free bacterial system (firefly luciferase synthesis); format: biochemical
Description: The inhibition of firefly luciferase (Fluc) synthesis by new azithromycin derivatives was assessed with the E. coli S30 Extract System for Linear Templates (Promega, Madison, WI, USA). Each reaction (5 μL total volume) was supplied with 0.1 mM mixture of all canonical amino acids, 4 U of RiboLock RNase Inhibitor (Thermo Fisher Scientific, Waltham, MA, USA), 0.1 mM of D-luciferin (Sigma-Aldrich, Burlington, MA, USA), 50 ng of firefly luciferase (Fluc) mRNA, and a chemical compound at a final concentration, as indicated in the main text, or nuclease-free water instead. Before the addition of mRNA, reaction tubes were pre-incubated at RT for 5 min and then placed back on ice. After the addition of mRNA, reaction mixtures were immediately subjected to continuous chemiluminescence measurement using the VICTOR X5 Multilabel Plate Reader (PerkinElmer, Waltham, MA, USA) at 37 °C for 30 min. Maximal rates of the firefly luciferase (Fluc) accumulation were calculated using the OriginPro 7.5 software. The values were normalized to a positive control (nuclease-free water, assigned a value of 100%). The results were visualized using the QtiPlot software (version 0.9.8.9).

[7] = tested on: E. coli ΔtolC pErmCL-ErmC; assay: MIC, broth microdilution, E. coli ΔtolC panel; format: cell-based; conditions: for MIC: Escherichia coli
Description: In order to create the construct pErmCL-ErmC, the vector backbone was amplified using pZa-fwd (5′-TAAGAATTCTCTAGCCCG-3′) and pZa-rev (5′-[…]-3′) primers, and the pERMZα plasmid as a template. The ermC gene was amplified from the pERMCTP plasmid with ErmC-fwd (5′-[…]-3′) and ErmC-rev (5′-TAGGCGGGCTAGAGAATTC-3′) primers. The joining of two DNA fragments was performed using the NEBuilder® HiFi DNA Assembly Master Mix (New England Biolabs, Ipswich, MA, USA). Sequences of intermediate products and the final construct were confirmed by Sanger sequencing with appropriate primers.
as §3, §1, §2

[8] = tested on: ribosome stalling on ermCL mRNA; assay: Toe-printing (primer extension inhibition) analysis on ermCL mRNA; format: biochemical; conditions: 50 μM (chloramphenicol 30 μM)
Description: The toe-printing (primer extension inhibition) analysis of azithromycin derivatives was carried out essentially as previously described with some minor modifications, as indicated below. The DNA template ErmCL was generated by PCR using two overlapping primers, ErmCL-fwd (5′-[…]-3′) and ErmCL-rev (5′-[…]-3′). Before the addition of the DNA template to reaction mixtures at the in vitro translation step, tubes were pre-incubated at RT for 5 min. Moreover, phenol-chloroform extraction of reverse transcription products was replaced with DNA purification using the QIAquick® PCR Purification Kit (Qiagen, Hilden, Germany) according to the manufacturer’s protocol.
Figure 4 Toe-printing (or primer extension inhibition) analysis of azithromycin derivatives on ermCL mRNA. Ribosome stalling is detected via reverse transcription in a cell-free bacterial transcription–translation coupled system. The toe-printing bands are marked with colored arrowheads, and the A-site codons (except for the start codon, P-site codon is indicated) occupied by the stalled ribosomes are indicated in the mRNA sequence with the corresponding colors. The stop codon is marked with an asterisk. All compounds but chloramphenicol (CLM) were tested at 50 μM. Chloramphenicol (CLM) was tested at 30 μM. DMSO was used as a negative control at 0.25% final concentration. Thiostrepton (THS) was used to indicate the translation start site.

[9] = tested on: Escherichia coli ATCC 25922; assay: MIC, broth microdilution (CLSI); format: cell-based; conditions: ATCC25922, E. coli ATCC 25922
Description: as §4, §2

SMILES	MIC (E. coli ΔtolC) [µg/mL]	MIC (E. coli ΔtolC pErmC) [µg/mL]	MIC (E. coli ΔtolC pERMZα) [µg/mL]	MIC [1] [µg/mL]	MIC [2] [µg/mL]	MIC [3] [µg/mL]	MIC [4] [µg/mL]	MIC [5] [µg/mL]	Inhibition of protein synthesis in vitro ([6]; concentration of 50 μM (Figure 2B))	MIC [7] [µg/mL]	Ribosome stalling pattern on ermCL mRNA [8]	MIC [9] [µg/mL]	Relative luciferase activity (relative maximal rate of Fluc accumulation) ([6]; final concentration 5 μM, water control = 100%) [%]	Fold increase in the MIC value on E. coli ΔtolC pErmCL-ErmC compared to E. coli ΔtolC [7]
Cc1ncc([N+](=O)[O-])n1CCO [MNZ, Metronidazole]	> 200	> 200	> 200	> 32	> 32	> 32	> 32	8 (≈ 46.7 µM)	no inhibition was observed	> 200	–	–	–	–
O=C(N[C@H](CO)[C@H](O)c1ccc([N+](=O)[O-])cc1)C(Cl)Cl [CLM, Chloramphenicol]	1.6 (≈ 4.95 µM)	1.6 (≈ 4.95 µM)	1.6 (≈ 4.95 µM)	–	8 (≈ 24.8 µM)	4 (≈ 12.4 µM)	–	–	–	1.6 (≈ 4.95 µM)	strong ribosome stalling when the Ser codon (AGU) occupies the E-site of the ribosome	8 (≈ 24.8 µM)	21	no changes in the MIC values

— PMC10892836, “Hybrid Molecules of Azithromycin with Chloramphenicol and Metronidazole: Synthesis and Study of Antibacterial Properties” (Pharmaceuticals, 2024)
